Assay results: patent US12138243B2, “Antiviral use of FABP4 modulating compounds” (CRESCENTA BIOSCIENCES, priority 2021, dated 2024)

System: human coronavirus OC43
Experiment: Antiviral activity: human coronavirus OC43 replication in differentiated 3T3-L1 mouse adipocyte cells, viral titers by TCID50 assay in MRC5 cells
Type: cell-based
Conditions: median fold reduction of virus titers vs vehicle control (DMSO); final compound concentration 10 µM; medium collected 24 hours after infection; differentiated 3T3-L1 adipocytes, 0.05 TCID50 per cell
Method: Activity of compounds affecting viral replication and disease was tested against coronavirus replication in differentiated 3T3-L1 mouse adipocyte cells using human coronavirus OC43 as a model virus. 3T3-L1 preadipocytes (ATCC) were routinely cultured in a growth medium composed of DMEM high-glucose (Sigma), 10% FBS (Gibco), 10 U/ml penicillin and 10 μg/ml streptomycin (P/S; Gibco) in a standard cell culture incubator at 37° C. To induce adipogenic differentiation, a confluent layer of 3T3-L1 cells were incubated with the growth medium containing 2 μM rosiglitazone, 1 μM dexamethasone, 500 μM IBMX, and 1 μg/ml insulin (Sigma). Forty-eight (48) hours later (on day 2) and on days 4 and 6, medium of the cells was replaced with fresh medium containing 1 μg/ml insulin. On days 8 and 10, the medium was refreshed with regular growth medium and addition of insulin was omitted. On day 11 or 12, the cells were infected with human coronavirus OC43 (ATCC) at a multiplicity of 0.05 TCID50 (tissue-culture infectious-dose 50) per cell in DMEM containing 2% heat-inactivated FBS and P/S. One hour after infection, medium of the cells were replaced with fresh medium containing either the indicated FABP4 modulating compounds or the vehicle in which the compounds were dissolved (DMSO). The final compound concentration was 10 µM and final concentration of DMSO was 0.1% (v/v). The cells were incubated at 35° C. during the course of infection and compound treatment. Twenty-four hours after infection, medium of the cells was collected, cleared by centrifugation at 2,000g for 5 minutes, and frozen at −80 degrees C. until further processing. The viral titers in the samples were determined by TCID50 assay in MRC5 cells (ATCC) using Reed-Munch method, and median fold reduction of virus titers in compound treated cells compared to vehicle control was calculated.

Structure (SMILES)	Antiviral activity group
CCCCC1CCCc2c(n(Cc3cccc(C(N)=O)c3)c3c(C(=O)O)cccc23)C1 (centres unmarked) [Compound 1, 7-butyl-5-[(3-carbamoylphenyl)methyl]-5H,6H,7H,8H,9H,10H-cyclohepta[b]indole-4-carboxylic acid]	B (between 10- to 99-fold)
CCCCC1CCCc2c(n(Cc3cccc(C#N)c3)c3c(C(=O)O)cccc23)C1 (centres unmarked) [Compound 2, 7-butyl-5-[(3-cyanophenyl)methyl]-5H,6H,7H, 8H,9H,10H-cyclohepta[b]indole-4-carboxylic acid]	A (reduced virus titers >100-fold)
CCCCC1CCCc2c(n(Cc3ccc(C)cc3)c3c(C(=O)O)cccc23)C1 (centres unmarked) [Compound 3, 7-butyl-5-[(4-methylphenyl)methyl]-5H,6H,7H,8H,9H,10H-cyclohepta[b]indole-4-carboxylic acid]	B (between 10- to 99-fold)
CCCCC1CCCc2c(n(Cc3ccccc3C)c3c(C(=O)O)cccc23)C1 (centres unmarked) [Compound 4, 7-butyl-5-[(2-methylphenyl)methyl]-5H,6H,7H,8H,9H,10H-cyclohepta[b]indole-4-carboxylic acid]	A (reduced virus titers >100-fold)
CCCCCCC1CCCc2c(n(Cc3cccc(C(N)=O)c3)c3c(C(=O)O)cccc23)C1 (centres unmarked) [Compound 5, 5-[(3-carbamoylphenyl)methyl]-7-hexyl-5H,6H,7H,8H,9H,10H-cyclohepta[b]indole-4-carboxylic acid]	B (between 10- to 99-fold)
CCCCCCC1CCCc2c(n(Cc3cccc(C#N)c3)c3c(C(=O)O)cccc23)C1 (centres unmarked) [Compound 6, 5-[(3-cyanophenyl)methyl]-7-hexyl-5H,6H,7H,8H,9H,10H-cyclohepta[b]indole-4-carboxylic acid]	A (reduced virus titers >100-fold)
CCCCCCC1CCc2c(n(Cc3cccc(C(N)=O)c3)c3c(C(=O)O)cccc23)C1 (centres unmarked) [Compound 7, 9-[(3-carbamoylphenyl)methyl]-2-hexyl-2,3,4,9-tetrahydro-1H-carbazole-8-carboxylic acid]	B (between 10- to 99-fold)
CCCCCCC1CCc2c(n(Cc3cccc(C#N)c3)c3c(C(=O)O)cccc23)C1 (centres unmarked) [Compound 8, 9-[(3-cyanophenyl)methyl]-2-hexyl-2,3,4,9-tetrahydro-1H-carbazole-8-carboxylic acid]	B (between 10- to 99-fold)
CCCCCCC1CCc2c(n(Cc3cccnc3)c3c(C(=O)O)cccc23)C1 (centres unmarked) [Compound 9, 2-hexyl-9-[(pyridin-3-yl)methyl]-2,3,4,9-tetrahydro-1H-carbazole-8-carboxylic acid]	A (reduced virus titers >100-fold)
CCCCCCC1CCc2c(n(Cc3ccccc3C)c3c(C(=O)O)cccc23)C1 (centres unmarked) [Compound 10, 2-hexyl-9-[(2-methylphenyl)methyl]-2,3,4,9-tetrahydro-1H-carbazole-8-carboxylic acid]	A (reduced virus titers >100-fold)
CCCCCCC1CCc2c(n(Cc3ccccc3F)c3c(C(=O)O)cccc23)C1 (centres unmarked) [Compound 11, 9-[(2-fluorophenyl)methyl]-2-hexyl-2,3,4,9-tetrahydro-1H-carbazole-8-carboxylic acid]	A (reduced virus titers >100-fold)
CCCCC1CCCc2c1n(Cc1cccc(C(N)=O)c1)c1c(C(=O)O)cccc21 (centres unmarked) [Compound 12, 1-butyl-9-[(3-carbamoylphenyl)methyl]-2,3,4,9-tetrahydro-1H-carbazole-8-carboxylic acid]	C (between 2- to 9-fold)
CCCCC1CCCc2c1n(Cc1cccc(C#N)c1)c1c(C(=O)O)cccc21 (centres unmarked) [Compound 13, 1-butyl-9-[(3-cyanophenyl)methyl]-2,3,4,9-tetrahydro-1H-carbazole-8-carboxylic acid]	B (between 10- to 99-fold)
CCCCC1CCCCc2c1n(Cc1cccc(C(N)=O)c1)c1c(C(=O)O)cccc21 (centres unmarked) [Compound 14, 6-butyl-5-[(3-carbamoylphenyl)methyl]-5H,6H,7H,8H,9H,10H-cyclohepta[b]indole-4-carboxylic acid]	B (between 10- to 99-fold)
CCCCC1CCCCc2c1n(Cc1cccc(C#N)c1)c1c(C(=O)O)cccc21 (centres unmarked) [Compound 15, 6-butyl-5-[(3-cyanophenyl)methyl]-5H,6H,7H,8H,9H,10H-cyclohepta[b]indole-4-carboxylic acid]	B (between 10- to 99-fold)
CCCCC1CCc2c1n(Cc1cccc(C(N)=O)c1)c1c(C(=O)O)cccc21 (centres unmarked) [Compound 16, 3-butyl-4-[(3-carbamoylphenyl)methyl]-1H,2H,3H,4H-cyclopenta[b]indole-5-carboxylic acid]	C (between 2- to 9-fold)
CCCCC1Cc2c(n(Cc3cccc(C(N)=O)c3)c3c(C(=O)O)cccc23)C1 (centres unmarked) [Compound 17, 2-butyl-4-[(3-carbamoylphenyl)methyl]-1H,2H,3H,4H-cyclopenta[b]indole-5-carboxylic acid]	C (between 2- to 9-fold)
CCCCC1Cc2c(n(Cc3cccc(C#N)c3)c3c(C(=O)O)cccc23)C1 (centres unmarked) [Compound 18, 2-butyl-4-[(3-cyanophenyl)methyl]-1H,2H,3H,4H-cyclopenta[b]indole-5-carboxylic acid]	C (between 2- to 9-fold)
CCCCC1CCCCc2c1c1cccc(C(=O)O)c1n2Cc1cccc(C(N)=O)c1 (centres unmarked) [Compound 19, 10-butyl-5-[(3-carbamoylphenyl)methyl]-5H,6H,7H,8H,9H,10H-cyclohepta[b]indole-4-carboxylic acid]	C (between 2- to 9-fold)
CCCCC1CCc2c(c3cccc(C(=O)O)c3n2Cc2cccc(C(N)=O)c2)C1 (centres unmarked) [Compound 20, 3-butyl-9-[(3-carbamoylphenyl)methyl]-2,3,4,9-tetrahydro-1H-carbazole-8-carboxylic acid]	C (between 2- to 9-fold)
CCc1c(-c2ccccc2)c(-c2ccccc2)nn1-c1ccccc1-c1cccc(OCC(=O)O)c1 [Compound 21, 2-((2′-(5-Ethyl-3,4-diphenyl-1H-pyrazol-1-yl)-[1,1′-biphenyl]-3-yl)oxy)acetic acid, reference compound]	C (between 2- to 9-fold)
Clc1ccc2nc(N3CCCCC3)c(-c3nnn[nH]3)c(-c3ccccc3)c2c1 [Compound 22, 6-chloro-4-phenyl-2-(piperidin-1-yl)-3-(1H-tetrazol-5-yl)quinoline, reference compound]	A (reduced virus titers >100-fold)
Cc1c(Cl)cccc1OCc1cc(=O)n2nc(-c3ccccc3)nc2[nH]1 [Compound 23, 5-((3-chloro-2-methylphenoxy)methyl)-2-phenyl-[1,2,4]triazolo[1,5-a]pyrimidin-7(4H)-one, reference compound]	B (between 10- to 99-fold)
